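Grown in 96-well plates, cells were treated for 48 hours with each compound at five concentrations. Insufficient inhibition: endpoint recorded as highest concentration tested. GI50 marks 50% less growth. Definition used: TGI = concentration required for complete inhibition of growth.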
How the values were obtained:
Test in all cases: growth of human tumour cells (NCI), 48 h
[1] = test system: 786-0 renal
[2] = test system: RXF 393 renal
[3] = test system: SF-268 CNS
[4] = test system: MDA-MB-231 breast
[5] = test system: NCI/ADR-RES ovarian
[6] = test system: CAKI-1 renal
[7] = test system: HOP-62 NSCLC
[8] = test system: HOP-92 NSCLC
[9] = test system: SK-MEL-5 melanoma
[10] = test system: OVCAR-5 ovarian
[11] = test system: SF-539 CNS
[12] = test system: SR leukemia
[13] = test system: SK-OV-3 ovarian
[14] = test system: HCT-116 colon
[15] = test system: T-47D breast
[16] = test system: HCC-2998 colon
[17] = test system: SK-MEL-28 melanoma
[18] = test system: HCT-15 colon
[19] = test system: A498 renal
[20] = test system: CCRF-CEM leukemia
[21] = test system: OVCAR-4 ovarian
[22] = test system: PC-3 prostate
[23] = test system: OVCAR-3 ovarian
[24] = test system: UACC-257 melanoma
[25] = test system: RPMI-8226 leukemia
[26] = test system: SF-295 CNS
[27] = test system: MCF7 breast
[28] = test system: UO-31 renal

Structure (SMILES): COC(=O)c1ccc2[nH]c(O)c(C(=Nc3ccc(N(C)C(=O)CN4CCN(C)CC4)cc3)c3ccccc3)c2c1
- GI50 [1]: 1.07 µM
- TGI [1]: 2.83 µM
- GI50 [2]: 0.422 µM
- TGI [2]: 1.69 µM
- GI50 [3]: 1.33 µM
- TGI [3]: 7.94 µM
- GI50 [4]: 1.28 µM
- TGI [4]: 3.17 µM
- GI50 [5]: 9.36 µM
- TGI [5]: 36.4 µM
- GI50 [6]: 0.21 µM
- TGI [6]: 1.25 µM
- GI50 [7]: 2.1 µM
- TGI [7]: 13 µM
- GI50 [8]: 9.78 µM
- TGI [8]: 39.7 µM
- GI50 [9]: 1.35 µM
- TGI [9]: 2.69 µM
- GI50 [10]: 2.63 µM
- TGI [10]: 6.8 µM
- GI50 [11]: 0.44 µM
- TGI [11]: 1.72 µM
- GI50 [12]: 0.224 µM
- TGI [12]: 10.2 µM
- GI50 [13]: 0.444 µM
- TGI [13]: 5 µM
- GI50 [14]: 0.343 µM
- TGI [14]: 3.06 µM
- GI50 [15]: 11.9 µM
- TGI [15]: 33.4 µM
- GI50 [16]: 3.89 µM
- TGI [16]: 18.2 µM
- GI50 [17]: 1.62 µM
- TGI [17]: 3.34 µM
- GI50 [18]: 1.77 µM
- TGI [18]: 8.4 µM
- GI50 [19]: 1.91 µM
- TGI [19]: 5.39 µM
- GI50 [20]: 0.666 µM
- TGI [20]: > 100 µM
- GI50 [21]: 0.956 µM
- TGI [21]: 2.78 µM
- GI50 [22]: 1.04 µM
- TGI [22]: 25.5 µM
- GI50 [23]: 1.41 µM
- TGI [23]: 3.23 µM
- GI50 [24]: 2.24 µM
- TGI [24]: 5 µM
- GI50 [25]: 1.92 µM
- TGI [25]: 8.34 µM
- GI50 [26]: 6.34 µM
- TGI [26]: 21 µM
- GI50 [27]: 0.603 µM
- TGI [27]: 2.42 µM
- GI50 [28]: 1.24 µM

Reference: PubChem BioAssay (NCI)
